Source: US20250296971A1, “GASTRIC INHIBITORY PEPTIDE RECEPTOR LIGANDS” (priority 2021, published 2025)
*1 amine or outer side, *2 acyl side, *3 side chain or, on linkers, in order; H or OH if unused. Where a SMILES comes first, the peptide text is derived from it. Bridges are numbered along the chain shown (N, C = ends). Side-chain parts run from the residue outwards. [ ]: non-standard residue; d: D form. The star is where a group is joined. X2 = O=C(O)CN1CCN(CC(=O)O)CCN(CC(=O)N[C@@H](CCC(=O)NC[C@H](O)[C@@H](O)[C@H](O)[C@H](O)CO)C(=O)*)CCN(CC(=O)O)CC1; NH(1-deoxy-D-glucityl) = OC[C@@H](O)[C@@H](O)[C@H](O)[C@@H](O)CN*; DOTA = O=C(O)CN1CCN(CC(=O)O)CCN(CC(=O)*)CCN(CC(=O)O)CC1; Trp(5-Cl) = N[C@@H](Cc1c[nH]c2ccc(Cl)cc12)C(=O)O; Pyridine(2,6-diCH2) = c1cc(C[*:1])nc(C[*:2])c1; Pro(4R-NH2) = N[C@H]1CN[C@H](C(=O)O)C1; Glutaryl = O=C(CCCC(=O)[*:2])[*:1]; Hyp = O=C(O)[C@@H]1C[C@@H](O)CN1; X1 = O=C(CN1CCC(N[*:1])CC1)[*:2]; hSer = N[C@@H](CCO)C(=O)O; Api = NC1(C(=O)O)CCNCC1; AEEA = NCCOCCOCC(=O)O

target: T1, GIPR (CHO-K1-hGIPR cells) (Homo sapiens, UniProt P48546); test: FACS binding assay; conditions: competition with 20 nM GIP-057, 4° C., 1 hour, read-out: pIC50 Category (converted)
T1 construct: host or cells: CHO-K1
T1 sequence (P48546 22-466): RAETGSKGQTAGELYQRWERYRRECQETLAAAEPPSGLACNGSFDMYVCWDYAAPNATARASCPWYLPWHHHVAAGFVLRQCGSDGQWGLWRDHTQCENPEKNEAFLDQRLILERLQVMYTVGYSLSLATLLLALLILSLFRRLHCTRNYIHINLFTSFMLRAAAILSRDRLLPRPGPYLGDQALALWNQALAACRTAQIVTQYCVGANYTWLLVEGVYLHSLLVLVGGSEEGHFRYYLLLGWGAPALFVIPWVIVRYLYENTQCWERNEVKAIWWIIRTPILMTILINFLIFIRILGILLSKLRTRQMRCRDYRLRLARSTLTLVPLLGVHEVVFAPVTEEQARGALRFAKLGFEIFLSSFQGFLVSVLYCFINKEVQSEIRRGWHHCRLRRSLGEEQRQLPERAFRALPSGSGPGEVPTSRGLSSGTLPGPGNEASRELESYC
How it was run: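 Peptide binding read by flow cytometry as APC-channel median fluorescence, fitted with a four-parameter logistic to yield EC50 or IC50. Cells were hGIPR-transfected CHO-K1 in PBS with 1% FCS, detected with 1 μg/mL APC-streptavidin, 30 min on ice.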

IC50	SMILES
< 10 nM	CC[C@H](C)[C@@H]1NC(=O)[C@H](CC(C)C)NC(=O)C2(CCN(C(=O)CN3CCN(CC(=O)O)CCN(CC(=O)O)CCN(CC(=O)O)CC3)CC2)NC(=O)[C@@H](NC(=O)[C@@H](CC(C)C)NC(=O)[C@H](CCC(=O)O)NC(=O)[C@@H]2C[C@@H](N)CN2C(=O)[C@H](Cc2c[nH]c3ccc(Cl)cc23)NC(=O)[C@H](Cc2c[nH]c3ccccc23)NC(=O)[C@H](CC(=O)O)NC(=O)CCCC(=O)NC[C@H](O)[C@@H](O)[C@H](O)[C@H](O)CO)CSCc2cccc(n2)CSC[C@H](C(=O)NC2CCN(CC(=O)N[C@H](CCC(=O)NC[C@H](O)[C@@H](O)[C@H](O)[C@H](O)CO)C(N)=O)CC2)NC1=O [GIP-038, AGLU-Glutar-Asp-Trp-5Clw-Tap-Glu-leu-[Cys(2Lut)-Apc(DOTA)-Leu-Ile-cys]-APAc-glu(AGLU)-NH2] ({NH(1-deoxy-D-glucityl)-Glutaryl}-DW[Trp(5-Cl)][Pro(4R-NH2)]E[dL]C[Api](DOTA)LI[dC][X1][dE](NH(1-deoxy-D-glucityl))-NH2; linker 7-11 via Pyridine(2,6-diCH2))
10 to 79.4 nM	CC[C@H](C)[C@@H]1NC(=O)[C@H](CC(C)C)NC(=O)C2(CCN(C(=O)CN3CCN(CC(=O)O)CCN(CC(=O)O)CCN(CC(=O)O)CC3)CC2)NC(=O)[C@@H](NC(=O)[C@@H](CC(C)C)NC(=O)[C@H](CCC(=O)O)NC(=O)[C@@H]2C[C@@H](O)CN2C(=O)[C@H](Cc2c[nH]c3ccc(Cl)cc23)NC(=O)[C@H](Cc2c[nH]c3ccccc23)NC(=O)[C@H](CC(=O)O)NC(=O)CN2CCC(NC(=O)CCCC(=O)NC[C@H](O)[C@@H](O)[C@H](O)[C@H](O)CO)CC2)CSCc2cccc(n2)CSC[C@@H](C(=O)N[C@H](CCCCNC(=O)CCOCCOCCOCCOCCOCCOCCOCCOCCOCCOCCOCCOCCOCCOCCOCCOCCOCCOCCOCCOCCOCCOCCOCCOCCOCCOCCOCCOCCOCCOCCOCCOCCOCCOCCOCCOCCOC)C(N)=O)NC1=O [GIP-039, AGLU-Glutar-APAc-Asp-Trp-5Clw-Hyp-Glu-leu-[Cys(2Lut)-Apc(DOTA)-Leu-Ile-Cys]-lys(MeO36PEG)-NH2]
10 to 79.4 nM	CCOCCOCCOCCOCCOCCOCCOCCOCCOCCOCCOCCOCCOCCOCCOCCOCCOCCOCCOCCOCCOCCOCCOCCOCCOCCOCCOCCOCCOCCOCCOCCOCCOCCOCCOCCOCCOCC(=O)NC1CCN(CC(=O)N[C@@H](CC(=O)O)C(=O)N[C@@H](Cc2c[nH]c3ccccc23)C(=O)N[C@@H](Cc2c[nH]c3ccc(Cl)cc23)C(=O)N2C[C@H](O)C[C@H]2C(=O)N[C@@H](CCC(=O)O)C(=O)N[C@H](CC(C)C)C(=O)N[C@H]2CSCc3cccc(n3)CSC[C@@H](C(=O)NC3CCN(CC(=O)N[C@H](CCC(=O)NC[C@H](O)[C@@H](O)[C@H](O)[C@H](O)CO)C(N)=O)CC3)NC(=O)[C@H]([C@@H](C)CC)NC(=O)[C@H](CC(C)C)NC(=O)C3(CCN(C(=O)CN4CCN(CC(=O)O)CCN(CC(=O)O)CCN(CC(=O)O)CC4)CC3)NC2=O)CC1 [GIP-041, MeO36PEG-APAc-Asp-Trp-5Clw-Hyp-Glu-leu-[Cys(2Lut)-Apc(DOTA)-Leu-Ile-Cys]-APAc-glu(AGLU)-NH2]
10 to 79.4 nM	CCOCCOCCOCCOCCOCCOCCOCCOCCOCCOCCOCCOCCOCCOCCOCCOCCOCCOCCOCCOCCOCCOCCOCCOCCOCCOCCOCCOCCOCCOCCOCCOCCOCCOCCOCCOCCOCC(=O)NC1CCN(CC(=O)N[C@@H](CC(=O)O)C(=O)N[C@@H](Cc2c[nH]c3ccccc23)C(=O)N[C@@H](Cc2c[nH]c3ccc(Cl)cc23)C(=O)N2C[C@H](N)C[C@H]2C(=O)N[C@@H](CCC(=O)O)C(=O)N[C@H](CC(C)C)C(=O)N[C@H]2CSCc3cccc(n3)CSC[C@@H](C(=O)NC3CCN(CC(=O)N[C@H](CCC(=O)NC[C@H](O)[C@@H](O)[C@H](O)[C@H](O)CO)C(N)=O)CC3)NC(=O)[C@H]([C@@H](C)CC)NC(=O)[C@H](CC(C)C)NC(=O)C3(CCN(C(=O)CN4CCN(CC(=O)O)CCN(CC(=O)O)CCN(CC(=O)O)CC4)CC3)NC2=O)CC1 [GIP-042, MeO36PEG-APAc-Asp-Trp-5Clw-Tap-Glu-leu-[Cys(2Lut)-Apc(DOTA)-Leu-Ile-Cys]-APAc-glu(AGLU)-NH2]

The remaining lines, values behind:

SMILES	IC50
CC[C@H](C)[C@@H]1NC(=O)[C@H](CC(C)C)NC(=O)C2(CCN(C(=O)[C@H](CCC(=O)NC[C@H](O)[C@@H](O)[C@H](O)[C@H](O)CO)NC(=O)CN3CCN(CC(=O)O)CCN(CC(=O)O)CCN(CC(=O)O)CC3)CC2)NC(=O)[C@@H](NC(=O)[C@@H](CC(C)C)NC(=O)[C@H](CCC(=O)O)NC(=O)[C@@H]2C[C@@H](O)CN2C(=O)[C@H](Cc2c[nH]c3ccc(Cl)cc23)NC(=O)[C@H](Cc2c[nH]c3ccccc23)NC(=O)[C@H](CC(=O)O)NC(=O)CN2CCC(NC(=O)CCCC(=O)NC[C@H](O)[C@@H](O)[C@H](O)[C@H](O)CO)CC2)CSCc2cccc(n2)CSC[C@@H](C(=O)NC2CCN(CC(=O)N[C@H](CCC(=O)NC[C@H](O)[C@@H](O)[C@H](O)[C@H](O)CO)C(N)=O)CC2)NC1=O [GIP-043, AGLU-Glutar-APAc-Asp-Trp-5Clw-Hyp-Glu-leu-[Cys(2Lut)-Apc(DOTA-glu(AGLU))-Leu-Ile-Cys]-APAc-glu(AGLU)-NH2] ({NH(1-deoxy-D-glucityl)-Glutaryl}-[X1]DW[Trp(5-Cl)][Hyp]E[dL]C[Api](X2)LIC[X1][dE](NH(1-deoxy-D-glucityl))-NH2; linker 8-12 via Pyridine(2,6-diCH2))	< 10 nM
CC[C@H](C)[C@@H]1NC(=O)[C@H](CC(C)C)NC(=O)C2(CCN(C(=O)CCCC(=O)NC[C@H](O)[C@@H](O)[C@H](O)[C@H](O)CO)CC2)NC(=O)[C@@H](NC(=O)[C@@H](CC(C)C)NC(=O)[C@H](CCC(=O)O)NC(=O)[C@@H]2C[C@@H](N)CN2C(=O)[C@H](Cc2c[nH]c3ccc(Cl)cc23)NC(=O)[C@H](Cc2c[nH]c3ccccc23)NC(=O)[C@H](CC(=O)O)NC(=O)[C@@H](CCC(=O)NC[C@H](O)[C@@H](O)[C@H](O)[C@H](O)CO)NC(=O)COCCOCCNC(=O)CN2CCN(CC(=O)O)CCN(CC(=O)O)CCN(CC(=O)O)CC2)CSCc2cccc(n2)CSC[C@@H](C(=O)NC2CCN(CC(=O)N[C@H](CCC(=O)NC[C@H](O)[C@@H](O)[C@H](O)[C@H](O)CO)C(N)=O)CC2)NC1=O [GIP-044, DOTA-02Oc-glu(AGLU)-Asp-Trp-5Clw-Tap-Glu-leu-[Cys(2Lut)-Apc(AGLU-Glutar)-Leu-Ile-Cys]-APAc-glu(AGLU)-NH2] ({DOTA-AEEA}-[dE](NH(1-deoxy-D-glucityl))DW[Trp(5-Cl)][Pro(4R-NH2)]E[dL]C[Api]([Glutaryl-NH(1-deoxy-D-glucityl)])LIC[X1][dE](NH(1-deoxy-D-glucityl))-NH2; linker 8-12 via Pyridine(2,6-diCH2))	< 10 nM
CC[C@H](C)[C@@H]1NC(=O)[C@H](CC(C)C)NC(=O)C2(CCN(C(=O)CCCC(=O)NC[C@H](O)[C@@H](O)[C@H](O)[C@H](O)CO)CC2)NC(=O)[C@@H](NC(=O)[C@@H](CC(C)C)NC(=O)[C@H](CCC(=O)O)NC(=O)[C@@H]2C[C@@H](N)CN2C(=O)[C@H](Cc2c[nH]c3ccc(Cl)cc23)NC(=O)[C@H](Cc2c[nH]c3ccccc23)NC(=O)[C@H](CC(=O)O)NC(=O)[C@@H](CCC(=O)NC[C@H](O)[C@@H](O)[C@H](O)[C@H](O)CO)NC(=O)CN2CCN(CC(=O)O)CCN(CC(=O)O)CCN(CC(=O)O)CC2)CSCc2cccc(n2)CSC[C@@H](C(=O)NC2CCN(CC(=O)N[C@H](CCC(=O)NC[C@H](O)[C@@H](O)[C@H](O)[C@H](O)CO)C(N)=O)CC2)NC1=O [GIP-045, DOTA-glu(AGLU)-Asp-Trp-5Clw-Tap-Glu-leu-[Cys(2Lut)-Apc(AGLU-Glutar)-Leu-Ile-Cys]-APAc-glu(AGLU)-NH2] ({DOTA}-[dE](NH(1-deoxy-D-glucityl))DW[Trp(5-Cl)][Pro(4R-NH2)]E[dL]C[Api]([Glutaryl-NH(1-deoxy-D-glucityl)])LIC[X1][dE](NH(1-deoxy-D-glucityl))-NH2; linker 8-12 via Pyridine(2,6-diCH2))	< 10 nM
CC[C@H](C)[C@@H]1NC(=O)[C@H](CC(C)C)NC(=O)C2(CCN(C(=O)[C@H](CCC(=O)NC[C@H](O)[C@@H](O)[C@H](O)[C@H](O)CO)NC(=O)CN3CCN(CC(=O)O)CCN(CC(=O)O)CCN(CC(=O)O)CC3)CC2)NC(=O)[C@@H](NC(=O)[C@@H](CC(C)C)NC(=O)[C@H](CCC(=O)O)NC(=O)[C@@H]2C[C@@H](O)CN2C(=O)[C@H](Cc2c[nH]c3ccc(Cl)cc23)NC(=O)[C@H](Cc2c[nH]c3ccccc23)NC(=O)[C@H](CCO)NC(=O)CN2CCC(NC(=O)CCCC(=O)NC[C@H](O)[C@@H](O)[C@H](O)[C@H](O)CO)CC2)CSCc2cccc(n2)CSC[C@@H](C(=O)NC2CCN(CC(=O)N[C@H](CCC(=O)NC[C@H](O)[C@@H](O)[C@H](O)[C@H](O)CO)C(N)=O)CC2)NC1=O [GIP-047, AGLU-Glutar-APAc-Hse-Trp-5Clw-Hyp-Glu-leu-[Cys(2Lut)-Apc(DOTA-glu(AGLU))-Leu-Ile-Cys]-APAc-glu(AGLU)-NH2] ({NH(1-deoxy-D-glucityl)-Glutaryl}-[X1][hSer]W[Trp(5-Cl)][Hyp]E[dL]C[Api](X2)LIC[X1][dE](NH(1-deoxy-D-glucityl))-NH2; linker 8-12 via Pyridine(2,6-diCH2))	10 to 79.4 nM
